Data on 10 compounds can be found in PMC10920327, “Prediction of anticancer peptides derived from the true lectins of Phoenix dactylifera and their synergetic effect with mitotane” (Frontiers in Pharmacology, 2024).

Like-named read-outs stand apart in the source and are kept apart here. No end group written: not given here.

For test [1], the system named is HepG2. The conditions noted are these: for % of cell viability of HepG2, mitotane alone: mitotane 25 µg/mL (80 µM) alone, MTT, 80 µM; for % of cell viability of HepG2, mitotane alone / IC50: 48 h.
Experimental: (§1) Selected human cell lines were cultured in DMEM media with 10% fetal bovine serum (FBS) at 37°C in a CO2 incubator. After 70%–90% confluence, 5 mL of 0.25% trypsin is injected to separate the cells. The cells were counted using trypan blue, and the cell concentration was set at 10^5/mL. A 96-well plate was filled with 100 mL in each well, and the plate was then incubated for 24 h.
(§2) In this study the media in each well was replaced to contain media containing peptides in varying concentrations (U1, U2, U3, U4, U5, U6, U7, U8, and U9). […] Mitotane concentrations ranged from 20 to 600 µM. U3 and U7 were combined with mitotane using two different preparation techniques. Various concentrations of U3 or U7 (40–1500 µM) and mitotane (20–600 µM) were serially diluted. serial dilution of mitotane concentration with 500 µg/mL of U3 or U7 at a fixed concentration Each concentration was repeated four times.
Test [2] has as its system MCF-7. As to the kind of experiment: cells. The conditions noted are these: Homo sapiens, MCF7, read-out: IC50 value against MCF-7, single agent.
Experimental: as §1, §2
Test [3] relates to HepG2. As to the kind of experiment: cells. The conditions noted are these: Homo sapiens, HepG2, read-out: IC50 value against HepG2, single agent.
Experimental: as §1, §2
The test system of test [4] is MCF-7. To be noted: 48 h, MTT; for % of cell viability of MCF-7, mitotane alone: mitotane 25 µg/mL alone.
Experimental: as §1, §2
A further test relates to T47D. The experiment in a line: MTT cell viability assay, T47D. Format: cell-based, human. To be noted: Table 3, 48 h, peptide alone. As for the experimental part:
MCF-7, T47D (breast cancer), and HepG2 (liver cancer) were donated by the Tissue Culture Unit, Department of Biochemistry, Faculty of Science, King Abdulaziz University. Selected human cell lines were cultured in DMEM media with 10% fetal bovine serum (FBS) at 37°C in a CO2 incubator. After 70%–90% confluence, 5 mL of 0.25% trypsin is injected to separate the cells. The cells were counted using trypan blue, and the cell concentration was set at 10^5/mL. A 96-well plate was filled with […] in each well, and the plate was then incubated for 24 h.
Mitotane, marketed as Lysodren, functions as a steroidogenesis inhibitor and cytostatic antineoplastic drug. It is employed for treating adrenocortical carcinoma and Cushing’s syndrome ([Lo Iacono et al., 2021]). In this study the media in each well was replaced to contain media containing peptides in varying concentrations (U1, U2, U3, U4, U5, U6, U7, U8, and U9). U3 and U7, which have the lowest IC50 values, were chosen to be combined with mitotane. Mitotane concentrations ranged from 20 to 600 µM. U3 and U7 were combined with mitotane using two different preparation techniques. Various concentrations of U3 or U7 (40–1500 µM) and mitotane (20–600 µM) were serially diluted. serial dilution of mitotane concentration with 500 µg/mL of U3 or U7 at a fixed concentration Each concentration was repeated four times.
After 48 h of incubation at 37°C, 100 µL of the 0.5 mg/mL MTT was changed with media containing the medication. At 37°C in the dark, the 96-well plate was incubated for 4 h. After removing the MTT and replacing it with 100 µL of DMSO, the plate was allowed to rest for 15 min. The absorbance of each well in 96 well plate was read at wave length 595 nm by ELISA reader (Bio-RAD microplate reader, Japan).
The treated cells viability and IC50 were expressed as the mean ± standard deviation (SD). The percentage viability was calculated by multiplying the absorbance of treated cells by 100 and dividing the absorbance of untreated cells. The software GraphPad Prism (version 9.0, San Diego, CA, United States) was conducted to calculate the IC50 of peptides, mitotane and their combination.
Background: Tetrazolium assays rely on reduction of a dye to a coloured formazan, in cell work by metabolically active cells.

[5] abbreviates: mean ± SD, n = 3, read-out: IC50 value against T47D.
The mark [6] stands for this setting: range from GraphPad fit, read-out: IC50 range against T47D.
Setting [7] is: read-out: IC50 range against MCF-7, Table 3, peptide alone, range from GraphPad fit.
Where [8] appears, read: read-out: IC50 value against MCF-7, Table 3, peptide alone, mean ± SD, n = 3.
[9] abbreviates: read-out: IC50 value against MCF-7, single agent, Table 4/Figure 2, U3, U7 40–1500 µM or mitotane alone, mean ± SD, n = 3.

Usually IC50 stands for the point on the concentration scale where inhibition reaches its midpoint.

`Clc1ccc(C(c2ccccc2Cl)C(Cl)Cl)cc1` (centres unmarked) [Mitotane]: the “% of cell viability of HepG2, mitotane alone” value was 41% in the test on HepG2 [1] and 41.86 ± 4.54% in the test on HepG2 [1] (listed as mitotane). Further, the “HepG2 IC50 fold lower than MCF-7” value with HepG2 [1] (mitotane alone, HepG2 versus MCF-7) came out at 2 fold. The IC50 in the test with MCF-7 [2] came out at 76.3 ± 5.04 µM; in the test with HepG2 [3], 40.1 ± 4.69 µM. For the same compound, the “% of cell viability of MCF-7, mitotane alone” value with MCF-7 [4] amounted to 59%; in the test on MCF-7 [4] (listed as mitotane) it was 59.05 ± 1.83%.

Regarding AVGSASPTL [Peptide U6], the IC50 in the test with T47D (setting [5]) was 5900 ± 119 µM; with T47D (setting [6]) it was 2520 to 13800 µM; in the test with MCF-7 [4] (setting [7]) it was 1360 to 2080 µM; in the test on MCF-7 [4] (setting [8]) it was 1680 ± 74.3 µM.

In the case of DEEENTHISTR [Peptide U5], the IC50 was 1260 ± 62.5 µM with T47D (setting [5]), 866 to 1830 µM with T47D (setting [6]), 549 to 1090 µM in the test on MCF-7 [4] (setting [7]) and 773 ± 44.5 µM in the test on MCF-7 [4] (setting [8]).

For the compound HDNTAHPAPDS [Peptide U9], the IC50 in the test on T47D (setting [5]) was 5460 ± 99.3 µM; with T47D (setting [6]), 2620 to 11400 µM; in the test on MCF-7 [4] (setting [7]), 351 to 496 µM; with MCF-7 [4] (setting [8]) it was 418 ± 15.7 µM.

As for NCSIHGDIPAY [Peptide U7], the IC50 in the test with HepG2 [1] was 524 ± 35.8 µM; with T47D (setting [5]), 584 ± 30 µM; with T47D (setting [6]), 485 to 703 µM; with MCF-7 [4] (setting [7]) it was 266 to 458 µM; with MCF-7 [4] (setting [9]), 554 ± 44.4 µM; in the test on MCF-7 [4] (setting [8]) it was 349 ± 25.3 µM.

Take NEEENTHISTR [Peptide U4]: the IC50 was 872 ± 23.4 µM in the test on T47D (setting [5]), 723 to 1050 µM in the test on T47D (setting [6]), 261 to 338 µM in the test with MCF-7 [4] (setting [7]) and 297 ± 19.7 µM in the test with MCF-7 [4] (setting [8]).

As for NGSIPATWASL [Peptide U3], the IC50 was 561 ± 39.3 µM in the test with HepG2 [1]; 518 ± 34.9 µM in the test with T47D (setting [5]); 435 to 616 µM with T47D (setting [6]); 373 to 617 µM with MCF-7 [4] (setting [7]); 556 ± 43.5 µM in the test on MCF-7 [4] (setting [9]); 480 ± 55 µM in the test on MCF-7 [4] (setting [8]).

In the case of NQADSSPSS [Peptide U2], the IC50 in the test with T47D (setting [5]) is 1510 ± 78 µM; with T47D (setting [6]), 1140 to 1990 µM; in the test on MCF-7 [4] (setting [7]) it was 451 to 1030 µM; with MCF-7 [4] (setting [8]), 682 ± 32 µM.

With SSQGYGSSPSPTPR [Peptide U1], the IC50 with T47D (setting [5]) was 599 ± 20.4 µM; in the test with T47D (setting [6]), 458 to 784 µM; in the test on MCF-7 [4] (setting [7]), 1010 to 2260 µM; in the test on MCF-7 [4] (setting [8]), 1510 ± 71.7 µM.

With TFPCSASNK [Peptide U8], the IC50 in the test with T47D (setting [5]) is 4710 ± 83.6 µM; in the test with T47D (setting [6]), 1990 to 11100 µM; in the test with MCF-7 [4] (setting [7]), 518 to 792 µM; with MCF-7 [4] (setting [8]) it was 641 ± 43.8 µM.
